Laboratory results taken from patent US5942489A, “HGH-RH(1-29)NH2 analogues having antagonistic activity” (The Administrators of the Tulane Educational Fund, priority 1996, dated 1999).
Where “and” joins values, the source holds several entries; their conditions need not be identical. Identical values can stand only once.

Columns and labels:
[1] = test system: GH release stimulated by hGH-RH(1-29)NH2; experiment: In vivo inhibition of hGH-RH(1-29)NH2-stimulated serum GH in anesthetized rats; design: species or system Sprague-Dawley rats
Procedure: In Vivo Tests. Adult male Sprague-Dawley rats are anesthetized with pentobarbital (6 mg/100 g b.w., i.p.). Blood samples are taken from the jugular vein 30 min after the injection of pentobarbital. One group of 7 animals receives hGH-RH(1-29)NH2 as control. […] Blood samples are taken from the jugular vein 5 and 15 min after the injection of antagonists. GH levels are measured by RIA. Potencies of the antagonists are calculated by the factorial analysis of Bliss and Marks with 95% confidence limits and are based on the doses of 100 and 400 μg/kg b.w. of the Standard antagonist and 20 and 80 μg/kg b.w. of the antagonists tested. Statistical significance was assessed by Duncan's new multiple range test.

[2] = test system: GH release; settings: cited from earlier work
[3] = test system: SW-1990 human pancreatic cancers; experiment: SW 1990 human pancreatic cancers in nude mice; type: in vivo
Procedure: Small piees of an SW-1990 rumor growing in a nude mouse were transplated s.c. into the right flanks of 60 nu/nu male nude mice. Ten days after transplantation, 40 mice with well growing tumors were groupled into 4 groups with equal average tumor volume (16 mm^3) in each group. Treatment started 13 days after transplantation and was continuted for 44 days. The tumors were measured and volume was calculated weekly. Tumor volume changes are shown in Table V. On day 45 of treatment the mice were sacraficed under Metofane anesthesia by exsanguination from abdominal aorta. Blood was collected, tumor and organ weights were determined.

[4] = 80 μg/kg i.v., 15 min prior to GH-RH(1-29)NH2 3 μg/kg

**Q.** For `CC[C@H](C)[C@H](NC(=O)[C@H](C)NC(=O)[C@H](CC(=O)O)NC(=O)[C@H](C)NC(=O)[C@@H](N)Cc1ccc(O)cc1)C(=O)N[C@@H](Cc1ccccc1)C(=O)N[C@H](C(=O)N[C@@H](CC(N)=O)C(=O)N[C@@H](CO)C(=O)N[C@@H](Cc1ccc(O)cc1)C(=O)N[C@@H](CCCNC(=N)N)C(=O)N[C@@H](CCCCN)C(=O)N[C@H](C(=O)N[C@@H](CC(C)C)C(=O)NCC(=O)N[C@@H](CCC(N)=O)C(=O)N[C@@H](CC(C)C)C(=O)N[C@@H](CO)C(=O)N[C@@H](C)C(=O)N[C@@H](CCCNC(=N)N)C(=O)N[C@@H](CCCCN)C(=O)N[C@@H](CC(C)C)C(=O)N[C@@H](CC(C)C)C(=O)N[C@@H](CCC(N)=O)C(=O)N[C@@H](CC(=O)O)C(=O)N[C@H](C(=O)N[C@@H](CCSC)C(=O)N[C@@H](CO)C(=O)N[C@@H](CCCNC(=N)N)C(N)=O)[C@@H](C)CC)C(C)C)[C@@H](C)O` [GH-RH (1-29) NH2, Tyr-Ala-Asp-Ala-Ile^5 -Phe-Thr-Asn-Ser-Tyr^10 -Arg-Lys-Val-Leu-Gly^15 -Gln-Leu-Ser-Ala-Arg^20 -Lys-Leu-Leu-Gln-Asp^25 -Ile-Met-Ser-Arg^29 -NH2], which “Serum GH Levels” value ([1]; GH-RH(1-29)NH2 alone 3.0 μg/kg i.v. (stimulated control)) is on record?
**A.** 695.15 ± 95.40 ng/mL and 703.34 ± 90.01 ng/mL and 724.68 ± 93.01 ng/mL and 883.36 ± 148.34 ng/mL and 703.34 ± 93.01 ng/mL

**Q.** For [AcTyr^1 ]hGH-RH(1-29)NH2, which “in vivo potency over that of GH-RH” value [2] is on record?
**A.** ten fold or more

**Q.** Which Inhibition % [1, 4] does the source give for “Ibu^0 --D--Arg^2 --Phe(pCl)^6 --Abu^16 --Nle^27 ] hGHRH (1-28) Agm [Peptide A]” here?
**A.** 43%

**Q.** What about the “Serum GH Levels” value [1, 4] of the same compound?
**A.** 585.33 ± 89.34 ng/mL

**Q.** And the “Serum GH Levels” value ([1]; 80 μg/kg i.v., 30 min prior to GH-RH(1-29)NH2 3 μg/kg)?
**A.** 788.39 ± 96.93 ng/mL

**Q.** What about the “effect on growth of SW-1990 cancers (volume and weight data)” value ([3]; Peptide #8 at 10 μg/day) of the same compound?
**A.** no significant effect on the tumors

**Q.** And the “Final Tumor Volume mm^3” value ([3]; dose 10, 44 days treatment)?
**A.** 1183 ± 342 mm^3

**Q.** And the “Tumor weights” value ([3]; dose 10, 44 days treatment)?
**A.** 1467 ± 595 mg

**Q.** And the “Final Tumor Volume mm^3” value ([3]; dose 40, 44 days treatment)?
**A.** 902 ± 156 mm^3

**Q.** What about the “Tumor weights” value ([3]; dose 40, 44 days treatment) of the same compound?
**A.** 1297 ± 258 mg
